Columns and labels:
[1] = test system: MM1S (Plasma Cell Myeloma); experiment: Bliss excess, mean over the matrix (fraction); higher = more synergy
Method in brief: (§1)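 After 24 hours at 37°C and 5% CO2 in 1536-well plates, cells in DMEM/F12 or RPMI plus 10% FBS received two-drug dose matrices for 72 hours. Viability came from CellTiter-Glo 2.0 luminescence and was scaled as inhibition, anchored at 0 by vehicle wells and at 1 by blank wells. Combination Emax is taken as the second-highest inhibition in the matrix, and Bliss excess as the observed combination effect less EA + EB − EA·EB, with EA and EB the single-agent effects.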

KALS-1 (Glioblastoma) = experiment: as above
Method in brief: as §1

NB1 (Neuroblastoma) [2] = experiment: as above
Method in brief: as §1

[3] = test system: MDA-MB-415 (Breast Carcinoma); experiment: as above
Method in brief: as §1

[4] = test system: NCI-H1963 (Small Cell Lung Carcinoma); experiment: as above
Method in brief: as §1

[5] = test system: C-33-A (Cervical Carcinoma); experiment: as above
Method in brief: as §1

NCI-H2373 (Mesothelioma) = experiment: as above
Method in brief: as §1

[6] = test system: SCC-4 (Oral Cavity Carcinoma); experiment: as above
Method in brief: as §1

[7] = test system: ZR-75-30 (Breast Carcinoma); experiment: as above
Method in brief: as §1

[8] = test system: NCI-H1876 (Small Cell Lung Carcinoma); experiment: as above
Method in brief: as §1

GAK (Melanoma) = experiment: as above
Method in brief: as §1

[9] = test system: KP-4 (Pancreatic Carcinoma); experiment: as above
Method in brief: as §1

[10] = test system: P30-OHK (B-Lymphoblastic Leukemia); experiment: as above
Method in brief: as §1

[11] = test system: LCLC-103H (Non-Small Cell Lung Carcinoma); experiment: as above
Method in brief: as §1

[12] = test system: SNU-423 (Hepatocellular Carcinoma); experiment: as above
Method in brief: as §1

[13] = test system: NAMALWA (Burkitt's Lymphoma); experiment: as above
Method in brief: as §1

[14] = test system: BxPC-3 (Pancreatic Carcinoma); experiment: as above
Method in brief: as §1

NB1 (Neuroblastoma) [15] = experiment: combination Emax (second highest fraction inhibited in the dose matrix, 72 h); higher = more inhibition; extreme values may be limits of the assay
Method in brief: as §1

[16] = test system: MONO-MAC-6 (Acute Myeloid Leukemia); experiment: as above
Method in brief: as §1

[17] = test system: LCLC-103H (Non-Small Cell Lung Carcinoma); experiment: as above
Method in brief: as §1
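For Bliss excess, mean over the matrix in this document: after 72 h of two-drug dosing.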

| SMILES | Bliss excess [1] | Bliss excess (KALS-1 (Glioblastoma)) | Bliss excess (NB1 (Neuroblastoma) [2]) | Bliss excess [3] | Bliss excess [4] | Bliss excess [5] | Bliss excess (NCI-H2373 (Mesothelioma)) | Bliss excess [6] | Bliss excess [7] | Bliss excess [8] | Bliss excess (GAK (Melanoma)) | Bliss excess [9] | Bliss excess [10] | Bliss excess [11] | Bliss excess [12] | Bliss excess [13] | Bliss excess [14] | combination Emax (NB1 (Neuroblastoma) [15]) | combination Emax [16] | combination Emax [17] |
| --- | --- | --- | --- | --- | --- | --- | --- | --- | --- | --- | --- | --- | --- | --- | --- | --- | --- | --- | --- | --- |
| Cn1cnc2c(F)c(Nc3ccc(Br)cc3Cl)c(C(=O)NOCCO)cc21 [Selumetinib] + CCN(CCO)CCCOc1ccc2c(Nc3cc(CC(=O)Nc4cccc(F)c4)[nH]n3)ncnc2c1 [AZD2811] (first compound max 10 µM, 7x7, partner max 1 µM) | 0.0812 | -0.0093 | -0.0138 | -0.0064 | 0.0053 | 0.0162 | -0.0082 | 0.0003 | -0.0544 | 0.0986 | -0.069 | 0.0217 | -0.0123 | -0.0104 | -0.0263 | 0.0244 | -0.057 | 0.566 | 0.703 | 0.376 |
| Cn1cnc2c(F)c(Nc3ccc(Br)cc3Cl)c(C(=O)NOCCO)cc21 [Selumetinib] + C[C@@H]1COCCN1C2=NC(=NC(=C2)C3(CC3)[S@](=N)(=O)C)C4=C5C=CNC5=NC=C4 [AZD6738] (first compound max 10 µM, 7x7, partner max 10 µM) | 0.0511 | -0.0479 | 0.0023 | -0.0395 | 0.0735 | 0.0486 | -0.0019 | -0.0352 | -0.0495 | 0.0218 | -0.0003 | -0.0712 | 0.012 | -0.0399 | -0.0238 | -0.0083 | -0.0197 | 0.783 | 0.931 | 0.324 |
| CC(=O)Nc1cccc(-n2c(=O)n(C3CC3)c(=O)c3c(Nc4ccc(I)cc4F)n(C)c(=O)c(C)c32)c1 [Trametinib] + Cc1nc(-c2cn3c(n2)-c2ccc(-c4cnn(C(C)(C)C(N)=O)c4)cc2OCC3)n(C(C)C)n1 [Taselisib] (first compound max 1 µM, 7x7, partner max 10 µM) | 0.119 | 0.0751 | 0.156 | -0.0162 | 0.0452 | 0.0744 | 0.0818 | 0.147 | 0.0155 | 0.132 | 0.0805 | 0.0745 | 0.151 | 0.0657 | 0.0727 | 0.0825 | 0.354 | 0.995 | 1 | 0.539 |
| CC1(C)CCC(CN2CCN(c3ccc(C(=O)NS(=O)(=O)c4ccc(NCC5CCOCC5)c([N+](=O)[O-])c4)c(Oc4cnc5[nH]ccc5c4)c3)CC2)=C(c2ccc(Cl)cc2)C1 [Venetoclax] + C1CN(CCC1(C(=O)N[C@@H](CCO)C2=CC=C(C=C2)Cl)N)C3=NC=NC4=C3C=CN4 [Capivasertib] (first compound max 1 µM, 7x7, partner max 3 µM) | -0.0028 | -0.0501 | -0.0596 | -0.102 | -0.0031 | -0.0453 | -0.0774 | -0.0792 | -0.0324 | -0.0952 | -0.0305 | -0.0623 | 0.058 | -0.0756 | -0.0386 | -0.0126 | -0.0171 | 0.755 | 0.704 | 0.238 |
| CC1(C)CCC(CN2CCN(c3ccc(C(=O)NS(=O)(=O)c4ccc(NCC5CCOCC5)c([N+](=O)[O-])c4)c(Oc4cnc5[nH]ccc5c4)c3)CC2)=C(c2ccc(Cl)cc2)C1 [Venetoclax] + C=CCn1c(=O)c2cnc(Nc3ccc(N4CCN(C)CC4)cc3)nc2n1-c1cccc(C(C)(C)O)n1 [AZD1775] (first compound max 1 µM, partner max 1 µM) | -0.0281 | 0.0815 | -0.0466 | -0.028 | 0.123 | 0.0262 | -0.0789 | 0.0032 | -0.0286 | -0.001 | 0.0074 | -0.0385 | 0.207 | -0.0136 | -0.0472 | 0.0438 | 0.092 | 0.889 | 0.992 | 0.394 |
| CC1(C)CCC(CN2CCN(c3ccc(C(=O)NS(=O)(=O)c4ccc(NCC5CCOCC5)c([N+](=O)[O-])c4)c(Oc4cnc5[nH]ccc5c4)c3)CC2)=C(c2ccc(Cl)cc2)C1 [Venetoclax] + CCN(CCO)CCCOc1ccc2c(Nc3cc(CC(=O)Nc4cccc(F)c4)[nH]n3)ncnc2c1 [AZD2811] (first compound max 1 µM, 7x7, partner max 1 µM) | 0.0157 | 0.0005 | -0.0139 | -0.0081 | 0.0196 | -0.0928 | -0.0047 | -0.0404 | -0.0575 | 0.129 | -0.0537 | -0.0338 | 0.0653 | -0.0756 | -0.0381 | 0.0894 | 0.0003 | 0.606 | 0.981 | 0.333 |
| CC1(C)CCC(CN2CCN(c3ccc(C(=O)NS(=O)(=O)c4ccc(NCC5CCOCC5)c([N+](=O)[O-])c4)c(Oc4cnc5[nH]ccc5c4)c3)CC2)=C(c2ccc(Cl)cc2)C1 [Venetoclax] + CN(C)CCCOc1ccc(-c2ccc3ncc4c(c3c2)n(C2CCOCC2)c(=O)n4C)cn1 [AZD0156] (first compound max 1 µM, 7x7, partner max 1 µM) | 0.0344 | -0.0717 | -0.0278 | -0.0869 | 0.0715 | -0.002 | -0.0564 | -0.024 | -0.0422 | 0.0501 | -0.0378 | -0.0344 | 0.0881 | -0.0404 | -0.0429 | 0.0387 | -0.0304 | 0.145 | 0.619 | 0.285 |
| CC1(C)CCC(CN2CCN(c3ccc(C(=O)NS(=O)(=O)c4ccc(NCC5CCOCC5)c([N+](=O)[O-])c4)c(Oc4cnc5[nH]ccc5c4)c3)CC2)=C(c2ccc(Cl)cc2)C1 [Venetoclax] + COc1cc(Nc2ncc3c(n2)-c2ccc(Cl)cc2C(c2c(F)cccc2OC)=NC3)ccc1C(=O)O [Alisertib] (first compound max 1 µM, 7x7, partner max 10 µM) | 0.078 | -0.0642 | 0.117 | -0.0711 | 0.0303 | -0.0225 | -0.0293 | 0.0421 | -0.0603 | 0.0228 | -0.0359 | -0.0542 | 0.178 | -0.0132 | 0.0176 | -0.0072 | -0.0291 | 0.561 | 0.964 | 0.539 |
| CC1(C)CCC(CN2CCN(c3ccc(C(=O)NS(=O)(=O)c4ccc(NCC5CCOCC5)c([N+](=O)[O-])c4)c(Oc4cnc5[nH]ccc5c4)c3)CC2)=C(c2ccc(Cl)cc2)C1 [Venetoclax] + C[C@@H]1COCCN1C2=NC(=NC(=C2)C3(CC3)[S@](=N)(=O)C)C4=C5C=CNC5=NC=C4 [AZD6738] (first compound max 1 µM, 7x7, partner max 10 µM) | 0.0444 | -0.034 | -0.0444 | -0.0584 | 0.0004 | -0.0127 | -0.0052 | -0.134 | -0.0359 | -0.0358 | -0.0586 | -0.0282 | 0.154 | -0.0085 | -0.0801 | -0.0029 | 0.0101 | 0.789 | 0.985 | 0.55 |
| CC1(C)CCC(CN2CCN(c3ccc(C(=O)NS(=O)(=O)c4ccc(NCC5CCOCC5)c([N+](=O)[O-])c4)c(Oc4cnc5[nH]ccc5c4)c3)CC2)=C(c2ccc(Cl)cc2)C1 [Venetoclax] + C[C@@H](Nc1cc(F)cc(F)c1)c1cc(C(=O)N(C)C)cc2c(=O)cc(N3CCOCC3)oc12 [AZD8186] (first compound max 1 µM, 7x7, partner max 3 µM) | 0.0377 | 0.0015 | -0.047 | -0.0128 | 0.21 | -0.0523 | -0.0473 | -0.119 | -0.0201 | -0.0181 | -0.0325 | -0.0205 | 0.149 | -0.0504 | 0.0364 | 0.0287 | -0.0115 | 0.145 | 0.808 | 0.253 |
| CC1(C)CCC(CN2CCN(c3ccc(C(=O)NS(=O)(=O)c4ccc(NCC5CCOCC5)c([N+](=O)[O-])c4)c(Oc4cnc5[nH]ccc5c4)c3)CC2)=C(c2ccc(Cl)cc2)C1 [Venetoclax] + Cc1cc2ncnn2cc1Nc1ncc2c(n1)n(C1CCOCC1)c(=O)n2C [AZD7648] (first compound max 1 µM, 7x7, partner max 10 µM) | 0.0556 | -0.0904 | -0.0358 | -0.117 | 0.109 | -0.0032 | -0.056 | -0.0674 | -0.0381 | 0.0111 | -0.0209 | -0.061 | 0.0584 | -0.0416 | -0.111 | -0.0246 | -0.0374 | 0.561 | 0.436 | 0.282 |
| CC1(C)CCC(CN2CCN(c3ccc(C(=O)NS(=O)(=O)c4ccc(NCC5CCOCC5)c([N+](=O)[O-])c4)c(Oc4cnc5[nH]ccc5c4)c3)CC2)=C(c2ccc(Cl)cc2)C1 [Venetoclax] + Cn1cnc2c(F)c(Nc3ccc(Br)cc3Cl)c(C(=O)NOCCO)cc21 [Selumetinib] (first compound max 1 µM, 7x7, partner max 3 µM) | 0.0456 | -0.0415 | -0.0466 | -0.0498 | 0.0788 | -0.0033 | -0.0468 | -0.0931 | -0.034 | -0.0335 | 0.0238 | -0.0521 | 0.036 | -0.0542 | -0.11 | 0.0019 | 0.0009 | 0.0633 | 0.357 | 0.115 |

From the supplement of paper PMC11061612
